Source: patent publication US20240384268A1, “Oligonucleotides” (Hudson Institute of Medical Research, priority 2021, published 2024)
In the oligonucleotide strings, read from the 5' end, every base follows the letter of its sugar. An asterisk marks phosphorothioate; unmarked linkages are phosphodiester. Other units and linkages are bracketed, terminal groups are in braces. A string of capitals states the bases alone. m = 2'-O-methyl

Target: T1, TLR8 (Homo sapiens, UniProt Q9NR97)
T1 sequence (Q9NR97 27-1041): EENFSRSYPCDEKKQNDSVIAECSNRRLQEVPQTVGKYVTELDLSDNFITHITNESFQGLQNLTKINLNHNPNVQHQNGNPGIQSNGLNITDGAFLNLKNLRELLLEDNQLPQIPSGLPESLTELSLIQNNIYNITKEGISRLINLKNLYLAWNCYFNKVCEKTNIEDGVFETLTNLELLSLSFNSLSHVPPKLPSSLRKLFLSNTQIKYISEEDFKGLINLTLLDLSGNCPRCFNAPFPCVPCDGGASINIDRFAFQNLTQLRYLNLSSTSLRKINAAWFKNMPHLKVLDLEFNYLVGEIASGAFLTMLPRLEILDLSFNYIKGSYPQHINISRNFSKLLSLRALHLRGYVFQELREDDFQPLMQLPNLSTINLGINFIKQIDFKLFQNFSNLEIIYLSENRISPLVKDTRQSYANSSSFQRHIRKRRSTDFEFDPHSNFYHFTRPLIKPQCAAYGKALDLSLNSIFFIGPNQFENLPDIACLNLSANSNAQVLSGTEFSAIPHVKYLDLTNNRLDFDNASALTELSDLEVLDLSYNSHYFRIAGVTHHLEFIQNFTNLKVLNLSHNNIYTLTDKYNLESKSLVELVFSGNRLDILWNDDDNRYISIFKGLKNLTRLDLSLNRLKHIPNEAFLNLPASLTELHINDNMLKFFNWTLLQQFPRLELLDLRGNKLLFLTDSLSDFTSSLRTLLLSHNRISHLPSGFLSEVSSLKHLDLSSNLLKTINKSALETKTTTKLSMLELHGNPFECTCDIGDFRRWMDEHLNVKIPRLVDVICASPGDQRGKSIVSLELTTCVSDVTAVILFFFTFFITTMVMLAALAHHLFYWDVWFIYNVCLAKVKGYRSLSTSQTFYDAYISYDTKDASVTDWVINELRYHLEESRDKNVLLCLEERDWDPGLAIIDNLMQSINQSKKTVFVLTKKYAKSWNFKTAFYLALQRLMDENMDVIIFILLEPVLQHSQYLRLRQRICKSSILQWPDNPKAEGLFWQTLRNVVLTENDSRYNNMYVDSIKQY
Test: HEK-TLR8 NF-κB-luciferase reporter, R848 or Motolimod stimulation (potentiation or inhibition)
Type: cell-based
Parameters: expressed in transfected cells; host or cells: 293XLhTLR8 (HEK293)
Conditions: for TLR8 100 nM (averaged NF-κB-Luciferase level relative to R848 condition, fold increase): ASO 100 nM; for TLR8 100 nM (averaged NF-κB-Luciferase level relative to R848 condition, fold increase) / TLR8 500 nM (averaged NF-κB-Luciferase level relative to R848 condition, fold increase): relative to R848 only; for TLR8 500 nM (averaged NF-κB-Luciferase level relative to R848 condition, fold increase): ASO 500 nM; for TLR8 HEK 5 uM: 3mer 2'OMe ASO at 5 uM, value relative to Ligand only = 1.000, NT = 0.000; for effect of 3-mer 2′OMe PS oligos on TLR8 sensing in HEK-TLR8 (in words): 5 μM naked 3-mer, Motolimod
Method: (§1) In such examples, potentiation of TLR8 activity can be identified by observation of an overall increased TLR8 response of the cell population, or a higher proportion of cells having TLR8-positive activity as compared to a negative control condition in which cells are treated with TLR8 agonist in the absence of the oligonucleotide (or in the presence of an appropriate control non-potentiating agent). In one example, 293XLhTLR8 (referred to as HEK-TLR8) cells are transfected with pNF-κB-Luc4 reporter, incubated with an oligonucleotide, and then stimulated with R848. TLR8 activity can be determined by a luciferase assay, which measures activated NF-κB by luminescence. TLR8 activity can also be analysed by measuring cytokine levels, for example by ELISA.
as §1, with “inhibition” for “potentiation”, “decreased” for “increased”, “lower” for “higher”, “positive” for “negative”, “inhibitory” for “non-potentiating”
For cGAS stimulations, cells were treated for indicated duration with ASOs, prior to transfection with ISD70 (human cells) or ISD45 (mouse cells) (the ASOs were not washed off prior to ISD transfection unless otherwise indicated). The cGAS ligands ISD45 (Stetson and Medzhitov, 2006) and ISD70 (also known as VACV-70 (Unterholzner et al., 2010)) (Table 1) were resuspended as follows: 5 1d of sense and 5 μl of antisense strands at 10 μg/μl were added to 90 μl PBS under sterile conditions, heated at 75° C. for 30 min, prior to letting cool down at room temperature and aliquoting (stock at 1 μg/1 l). The ISDs were transfected at a concentration of […] at a ratio of 1 μg:1 μl with Lipofectamine 2000 in Opti-MEM (Thermo Fisher Scientific). HEK-TLR3, HEK-TLR7 and […] were treated with indicated concentration of ASOs for 20-50 min, prior to stimulation with poly(I:C) (Invivogen), R848 (Invivogen), Motolimod (MedChemExpress) and the Class B CpG oligonucleotides ODN 2006 (synthesised by IDT and resuspended in RNase-free TE buffer [Table 1]), respectively. The TLR2/1 agonist PAM3CSK4 (Invivogen), the TLR4 agonist lipopolysaccharide (Invivogen), the Class B CpG oligonucleotides ODN 1826 (synthesised by IDT and resuspended in RNase-free TE buffer), the mouse Sting agonist DMXAA (Cayman) and the human STING agonist (compound #3 from (Raanjulu et al., 2018), referred to as GSK herein—kind gift from Cancer Therapeutics CRC, Australia) were used at indicated concentrations. Aspirin (Sigma—A2093) was resuspended in pure medium to 10 mM, filter sterilised and added to the cells at 2 mM final. All ASOs were synthesised by Integrated DNA Technologies (IDT), and resuspended in RNase-free TE buffer, pH 8.0 (Thermo Fisher Scientific). Cell viability was assessed by adding 1× fresh resazurin solution to the wells (10λ solution made up with 7 mg resazurin [Sigma—R7017] dissolved in 3.5 ml PBS, sterile filtered at […]) for 4 h, prior to reading at with a Fluostar OPTIMA (BMG LABTECH) plate-reader (fluorescence: Excitation 535 nm, Emission 590); wells with medium only and 1× resazurin were used as blanks.

Substance | TLR8 HEK 5 uM | other results
GCCATGTTTCTTCTTG (antisense; LNA-modified, pattern not given here) [MB21D1-1248 LNA KL] |  | TLR8 100 nM (averaged NF-κB-Luciferase level relative to R848 condition, fold increase): 0.430; TLR8 500 nM (averaged NF-κB-Luciferase level relative to R848 condition, fold increase): 0.431
mAmUmC (mA*mU*mC) [AUC, 3-mer 2′OMe PS oligo] | 0.674 | 
CUA (mC*mU*mA) | 0.642 | 
dA*dC*dA (DNA ACA; listed as RNA, chemistry not fully specified) | 0.841 | 
CCU (mC*mC*mU) | 0.613 | 
GTATCGAAAGAGTCTG (antisense; LNA-modified, pattern not given here) [EGFR-3908 LNA KL] |  | TLR8 100 nM (averaged NF-κB-Luciferase level relative to R848 condition, fold increase): 0.637; TLR8 500 nM (averaged NF-κB-Luciferase level relative to R848 condition, fold increase): 1.781
TGGCCTCCCATCTCCT (antisense; LNA-modified, pattern not given here) [HPRT LNA-329 V1] |  | TLR8 100 nM (averaged NF-κB-Luciferase level relative to R848 condition, fold increase): 0.495; TLR8 500 nM (averaged NF-κB-Luciferase level relative to R848 condition, fold increase): 1.127
GCAGGCTCAGTGATGT (antisense; LNA-modified, pattern not given here) [CTNN2B-1642 LNA V1] |  | TLR8 100 nM (averaged NF-κB-Luciferase level relative to R848 condition, fold increase): 0.638; TLR8 500 nM (averaged NF-κB-Luciferase level relative to R848 condition, fold increase): 1.440
UUG (listed as RNA, chemistry not fully specified) | 1.071 | 
dA*dA*dA (DNA AAA; listed as DNA, chemistry not fully specified) | 0.859 | 
TGATGGCCTCCCATCT (antisense; LNA-modified, pattern not given here) [HPRT LNA-332 V1] |  | TLR8 100 nM (averaged NF-κB-Luciferase level relative to R848 condition, fold increase): 0.374; TLR8 500 nM (averaged NF-κB-Luciferase level relative to R848 condition, fold increase): 0.263
AUG (mA*mU*mG) | 0.828 | 
GTTCAGTCCTGTCCAT (antisense; LNA-modified, pattern not given here) [HPRT LNA-292 V1] |  | TLR8 100 nM (averaged NF-κB-Luciferase level relative to R848 condition, fold increase): 1.069; TLR8 500 nM (averaged NF-κB-Luciferase level relative to R848 condition, fold increase): 4.129
UCC (mU*mC*mC) | 1.292 | 
dA*dA*dG (DNA AAG; listed as DNA, chemistry not fully specified) | 0.858 | 
mGmAmU (mG*mA*mU) [GAU, 3-mer 2′OMe PS oligo] | 0.528 | effect of 3-mer 2′OMe PS oligos on TLR8 sensing in HEK-TLR8 (in words): robustly the most potent

Substance | TLR8 HEK 5 uM | other results
TCGTAGTTGCTTCCTA (antisense; LNA-modified, pattern not given here) [MB21D1-1181 LNA KL] |  | TLR8 100 nM (averaged NF-κB-Luciferase level relative to R848 condition, fold increase): 0.557; TLR8 500 nM (averaged NF-κB-Luciferase level relative to R848 condition, fold increase): 1.583
mUmCmG (antisense mU*mC*mG) [660-3b] | 2.839 | effect of 3-mer 2′OMe PS oligos on TLR8 sensing in HEK-TLR8 (in words): potentiated the sensing of R848
UAU (mU*mA*mU) | 0.887 | 
mUmGmA (mU*mG*mA) [UGA, 3-mer 2′OMe PS oligo] | 1.331 | 
UUA (mU*mU*mA) | 1.060 | 
GATAGCACCTTCAGCA (antisense; LNA-modified, pattern not given here) [CTNN2B-1294 LNA KL] |  | TLR8 100 nM (averaged NF-κB-Luciferase level relative to R848 condition, fold increase): 0.821; TLR8 500 nM (averaged NF-κB-Luciferase level relative to R848 condition, fold increase): 2.863
UGC (mU*mG*mC) | 1.032 | 
dC*dC*dA (CCA; listed as DNA, chemistry not fully specified) | 0.946 | 
CUG (mC*mU*mG) | 1.074 | 
CGU (mC*mG*mU) | 1.327 | 
CUC (mC*mU*mC) | 0.685 | 
mUmCmA (mU*mC*mA) [UCA, 3-mer 2′OMe PS oligo] | 1.115 | 
dC*dC*dG (CCG; listed as DNA, chemistry not fully specified) | 0.899 | 
UUU (mU*mU*mU) | 0.870 | 
mCmUmU (antisense mC*mU*mU) [660-3] | 0.712 | 
